According to PMC7482845, “G10 is a direct activator of human STING” (PLoS ONE, 2020):

Key:
[1] = tested on: human PBMCs and umbilical endothelial cells; parameters: method as in PMID 26646986; details: cited from earlier work
Q variant of human STING = target: T1, Q variant of human STING (Homo sapiens, UniProt Q86WV6, R293Q); assay: Luciferase (ISRE.ISG reporter) assay in HEK293T cells stably expressing Q hSTING; format: cell-based
T1 construct: expressed in transfected cells
From the text: (§1) • a) Stable STING expressing cells. Stable HEK293T STING-expressing cell lines were generated using plasmids purchased from Invivogen, CA, USA, that contain STING cDNA cloned into the pUNO-1 vector under the hEF1-HTLV promoter as well as the Blasticidin selection cassette. The human STING plasmids corresponding to the R232, H232 and HAQ variants were directly procured from Invivogen while the AQ and Q variants were created by mismatch PCR using cDNA from HAQ.STING and R232.STING variants respectively. These vectors were individually transfected into HEK293T cells using Lipofectamine (Invitrogen) and transfected cells were expanded under Blasticidin selection. These cells were further subjected to clonal selection using the limiting dilution method to obtain clonally pure populations of HEK293T cells expressing each of the five human STING variants. Clones with minimal ligand independent activation of STING were chosen for cellular experiments. • b) N-His R232.hSTING HEK293T cells. […]
(§2) […] clonally selected HEK293T-hSTING-Luciferase cells or control HEK293T-Luciferase cells were seeded in 384-well plates in growth medium and stimulated with known STING agonists or novel compounds. Supernatants were removed after 20 hours of treatment and secretory reporter gene activity was measured using the Quanti-Luc detection system (Invivogen) on a Spectramax i3X luminometer.

[2] = target: T2, AQ variant of human STING (Homo sapiens, UniProt Q86WV6, G230A/R293Q); assay: Luciferase (ISRE.ISG reporter) assay in HEK293T cells stably expressing AQ hSTING; format: cell-based
T2 construct: expressed in transfected cells
T2 sequence (Q86WV6 whole entry G230A/R293Q): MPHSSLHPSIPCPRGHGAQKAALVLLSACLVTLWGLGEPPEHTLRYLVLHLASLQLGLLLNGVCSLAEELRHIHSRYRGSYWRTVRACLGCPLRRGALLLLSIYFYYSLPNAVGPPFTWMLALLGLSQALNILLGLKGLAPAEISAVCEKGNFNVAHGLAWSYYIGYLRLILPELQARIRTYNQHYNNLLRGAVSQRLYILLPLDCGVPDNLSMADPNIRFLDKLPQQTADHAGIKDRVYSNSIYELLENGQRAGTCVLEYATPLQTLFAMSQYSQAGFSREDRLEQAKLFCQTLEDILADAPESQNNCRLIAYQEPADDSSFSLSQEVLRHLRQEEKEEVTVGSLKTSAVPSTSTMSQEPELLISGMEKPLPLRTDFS
From the text: as §1, §2

[3] = target: T3, recombinant CTT domain of R232 STING (Homo sapiens, UniProt Q86WV6, H232R); assay: In vitro kinase assay, recombinant CTT domain of R232 STING plus recombinant TBK1; format: biochemical; details: cell free, immunoblot
T3 construct: corresponding to the soluble domain of STING (138 to 379 aa) protein; purchased Cayman Chemicals (STING); Invitrogen (TBK1) 22816 (STING); A31514 (TBK1)
T3 sequence (Q86WV6 138-379 H232R): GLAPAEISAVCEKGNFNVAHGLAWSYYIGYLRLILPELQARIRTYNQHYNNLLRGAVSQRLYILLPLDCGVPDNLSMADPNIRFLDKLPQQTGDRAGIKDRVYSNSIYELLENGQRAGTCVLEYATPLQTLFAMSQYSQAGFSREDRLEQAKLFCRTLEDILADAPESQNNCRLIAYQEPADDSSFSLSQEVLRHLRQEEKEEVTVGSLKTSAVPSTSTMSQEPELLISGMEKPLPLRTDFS
Protocol: 50ng of recombinant STING protein (Cayman Chemicals Cat# 22816) corresponding to the soluble domain of STING (138 to 379 aa) protein or 1 μl of ER fraction (8mg/ml) containing full length STING from R232.hSTING was incubated with 20 ng of recombinant full length TBK1 protein (Invitrogen, Cat# A31514) in the presence/absence of test compound in 20 μl reaction buffer (50mM Tris-HCl of pH 7.4, 100mM NaCl, 5mM MgCl2, 5mM MnCl2, 10% glycerol, 0.2mM Na3VO4, 20mM β-glycero-PO4, 0.5mM ATP) and 0.01% BSA at 30 °C for 45 min. The reaction was quenched by addition of 2 μl of 10X EDTA to a final concentration of […]. Samples were treated with 4x gel loading dye followed by electrophoresis in 10% SDS-PAGE gels and transferred to Immobilon-P membranes (Millipore). […] Anti-rabbit HRP labelled secondary antibody (Abcam) and Clarity Max™ western ECL substrate (Biorad, Cat# 1705062) were used for visualization of bands using a BioRad XRS plus imager.

HAQ STING (THP-1 cells) = target: T4, HAQ STING (THP-1 cells) (Homo sapiens, UniProt Q86WV6, G230A/R293Q/R71H); assay: THP1 cellular assay (EC50); format: cell-based; details: THP-1 cells (HAQ STING)
T4 construct: THP1 cells constitutively express the HAQ variant of human STING; host or cells: THP-1
T4 sequence (Q86WV6 whole entry R71H/G230A/R293Q): as the sequence (Q86WV6 whole entry G230A/R293Q) above, with R71H counted along it

[4] = tested on: immortalized human fibroblasts; parameters: method as in PMID 26646986; details: cited from earlier work
[5] = target: T5, full length R232.hSTING (ER fraction of transfected HEK293T cells) (Homo sapiens, UniProt Q86WV6, H232R); assay: In vitro kinase assay, ER fraction with full length R232 STING plus recombinant TBK1; format: biochemical; details: cell free, immunoblot
T5 construct: ER fraction (8mg/ml) containing full length STING from R232.hSTING; host or cells: ER fraction of R232.hSTING HEK293T cells
T5 sequence (Q86WV6 whole entry H232R): as the sequence (Q86WV6 whole entry G230A/R293Q) above, with A230G, H232R, Q293R counted along it
Protocol: This was followed by homogenization 3 times with a 30 sec each pulse and 1 min cooling between each pulse. Homogenates were centrifuged at 5000g for 10 min at 4 °C to remove nuclei, mitochondria and cell membrane from the cytosolic fraction. Supernatant was further centrifuged at 100000g for 1 h at 4 °C to fractionate the ER containing cytosolic fraction. The pellet thus obtained was resuspended in homogenization buffer and washed by centrifugation at 100000g twice. Post washing, the ER fraction containing pellet was resuspended in ER buffer (final composition: 20 mM Tris-HCl, 100 mM NaCl, 5 mM MgCl2, 5 mM MnCl2, 20 mM beta Glycerophosphate, 0.2 mM Na3VO4, 1X protease inhibitor cocktail (Roche), pH 7.5) using a syringe fitted with a 26G needle passing through it several times till homogeneity. The protein content of the ER homogenate was estimated by the BCA method and aliquots were stored at -80 °C for further use. […]

parent HEK293T cells = assay: Luciferase assay in parent (control) HEK293T cells without STING; format: cell-based, human; details: HEK293T cells that do not express STING (S1 Fig)
Protocol: as §2

T1 sequence (Q86WV6 whole entry R293Q): as the sequence (Q86WV6 whole entry G230A/R293Q) above, with A230G counted along it

O=C(NCc1ccco1)c1ccc2c(c1)N(Cc1c(F)cccc1Cl)C(=O)CS2 [Compound G10, 4-(2-Chloro-6-fluorobenzyl)-N-(furan-2-ylmethyl)-3-oxo-3,4-dihydro-2H-benzo[b][1,4]thiazine-6-carboxamide]
induction of pro-inflammatory genes incl. NFκB pathway [1]: induced several pro-inflammatory genes | activity against the Q variant (Q variant of human STING): barely active | activity against the AQ variant [2]: barely active | formation of pSTING by TBK1, recombinant CTT domain of R232 STING [3]: activated | THP-1 EC50 (HAQ STING (THP-1 cells)): Nil @ 30uM | activity in STING knockout fibroblasts ([4]; STING knockout fibroblasts): inactive | activation of the NFκB pathway in immortalized human fibroblasts [4]: did not activate | formation of pSTING by TBK1, ER fraction with full length R232 STING [5]: activated | response of parent HEK293T cells (reporter gene expression) (parent HEK293T cells): unresponsive
